In patent US20070299072A1, “KV1.5 POTASSIUM CHANNEL INHIBITORS” (Wyeth, priority 2006, published 2007):
pIC50: −log10 of the molar value.

Columns and labels:
Type in all cases: cell-based
HERG = biological target: T1, HERG (Homo sapiens, UniProt Q12809); assay: HERG Patch Clamp EP (whole cell patch clamp, tail currents; single point at 10 μM and IC50); conditions: for pIC50: concentration response; for inhibition at 10 µM: human, HEK cells stably overexpressing HERG, single point at 10 μM, HERG in HEK cells, read-out: HERG % Inhib. @ 10 μM
T1 construct: expressed in transfected cells; host or cells: HEK cells
Description: The external solution is standard Tyrodes solution.

Kv1.5 = biological target: T2, Kv1.5 (Homo sapiens, UniProt P22460); assay: Kv1.5 Patch Clamp EP (whole cell patch clamp; single point at 1 μM and IC50); conditions: for pIC50: concentration response; for inhibition at 1 µM: single point at 1.0 μM, Kv1.5 stably over expressed in HEK or LTK- cells
T2 construct: expressed in transfected cells; host or cells: HEK or LTK- cells
Description: The external solution is standard Tyrodes solution. […] Inhibition was measured at the end of the 1 second pulses and expressed relative to controls. Initial Kv1.5 inhibition is estimated by single point determinations done at 1 μM.

L-type calcium channels = assay: FLIPR L-type Calcium Channel Assay (calcium influx in HL-1 cells after KCl); conditions: read-out: L-type Ca2+ IC50
Description: HL-1 cells expressing endogenous L-type calcium channels are removed from culture flasks using trypsin, plated on fibronectin/gelatin-coated, clear-bottomed, black-walled 96-well microplates in Claycomb media (JRH Biosciences #51800) containing 10% fetal bovine serum, 4 mM L-glutamine, and 10 μM norepinephrine, and grown to confluency overnight. The next day, growth medium is aspirated from confluent cell monolayers and replaced with 100 μL per well Tyrode's solution (in mM: 130 NaCl, 4 KCl, 1.8 CaCl2, 1.0 MgCl2, 20 HEPES, 10 glucose, pH 7.35) and 50 μL per well FLIPR Calcium Assay kit, component A (#R-8033, Molecular Devices Corporation) and incubated for 60 min. in a 5% CO2 37° C. incubator. 50 μL per well test compounds are added to the plates and further incubated for 15 min. in a 5% CO2 37° C. incubator. All final solutions contain the anion exchange inhibitor, probenecid (2.5 mM). The 96-well plates are then placed in the center position of the FLIPR 1 (Fluorometric Imaging Plate Reader, Molecular Devices Corporation). Cell monolayers in each well are simultaneously illuminated at 488 nm with an Argon ion laser, and fluorescence emission is monitored using a 510-570 nm bandpass filter and a cooled CCD camera. To depolarize the plasma membrane and activate L-type calcium channels, 50 μL per well of 20 mM KCl (final concentration) are dispensed simultaneously to all 96 wells using the FLIPR's automatic 96-well pipettor. Fluorescence measurements are captured for 5 min. following KCl addition. Calcium influx, expressed as % control, is calculated for each concentration of test compound and concentration-response curves and IC50 values are generated using GraphPad Prism 4.0.

T1 sequence (Q12809 whole entry): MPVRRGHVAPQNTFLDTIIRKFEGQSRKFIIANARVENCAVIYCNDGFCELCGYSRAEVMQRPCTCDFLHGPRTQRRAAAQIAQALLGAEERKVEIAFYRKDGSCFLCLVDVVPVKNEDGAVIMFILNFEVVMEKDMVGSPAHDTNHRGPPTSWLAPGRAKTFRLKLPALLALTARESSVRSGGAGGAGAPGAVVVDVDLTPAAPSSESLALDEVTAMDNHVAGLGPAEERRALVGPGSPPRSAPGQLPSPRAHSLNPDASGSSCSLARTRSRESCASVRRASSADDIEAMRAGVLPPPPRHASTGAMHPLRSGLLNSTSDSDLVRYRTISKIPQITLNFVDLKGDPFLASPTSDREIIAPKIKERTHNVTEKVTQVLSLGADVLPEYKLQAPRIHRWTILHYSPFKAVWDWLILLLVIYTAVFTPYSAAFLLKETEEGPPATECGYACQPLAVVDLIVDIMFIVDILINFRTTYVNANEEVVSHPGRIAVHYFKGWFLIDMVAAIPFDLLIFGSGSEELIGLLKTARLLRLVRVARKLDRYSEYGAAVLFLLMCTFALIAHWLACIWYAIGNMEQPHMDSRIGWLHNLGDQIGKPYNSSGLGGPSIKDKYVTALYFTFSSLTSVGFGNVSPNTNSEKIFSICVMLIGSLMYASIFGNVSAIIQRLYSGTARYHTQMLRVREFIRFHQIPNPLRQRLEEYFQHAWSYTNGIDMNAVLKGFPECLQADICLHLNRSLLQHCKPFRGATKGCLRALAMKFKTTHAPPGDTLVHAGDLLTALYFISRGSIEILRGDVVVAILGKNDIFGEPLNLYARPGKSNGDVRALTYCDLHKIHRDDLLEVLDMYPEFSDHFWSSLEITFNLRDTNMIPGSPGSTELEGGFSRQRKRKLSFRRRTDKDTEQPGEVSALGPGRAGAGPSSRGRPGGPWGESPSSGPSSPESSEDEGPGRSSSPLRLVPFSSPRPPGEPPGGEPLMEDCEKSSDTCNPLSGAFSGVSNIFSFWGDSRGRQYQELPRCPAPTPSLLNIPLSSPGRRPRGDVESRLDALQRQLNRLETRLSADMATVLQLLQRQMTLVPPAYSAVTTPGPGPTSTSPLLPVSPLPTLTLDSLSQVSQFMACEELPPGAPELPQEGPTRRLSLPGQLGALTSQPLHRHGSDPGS
T2 sequence (P22460 whole entry): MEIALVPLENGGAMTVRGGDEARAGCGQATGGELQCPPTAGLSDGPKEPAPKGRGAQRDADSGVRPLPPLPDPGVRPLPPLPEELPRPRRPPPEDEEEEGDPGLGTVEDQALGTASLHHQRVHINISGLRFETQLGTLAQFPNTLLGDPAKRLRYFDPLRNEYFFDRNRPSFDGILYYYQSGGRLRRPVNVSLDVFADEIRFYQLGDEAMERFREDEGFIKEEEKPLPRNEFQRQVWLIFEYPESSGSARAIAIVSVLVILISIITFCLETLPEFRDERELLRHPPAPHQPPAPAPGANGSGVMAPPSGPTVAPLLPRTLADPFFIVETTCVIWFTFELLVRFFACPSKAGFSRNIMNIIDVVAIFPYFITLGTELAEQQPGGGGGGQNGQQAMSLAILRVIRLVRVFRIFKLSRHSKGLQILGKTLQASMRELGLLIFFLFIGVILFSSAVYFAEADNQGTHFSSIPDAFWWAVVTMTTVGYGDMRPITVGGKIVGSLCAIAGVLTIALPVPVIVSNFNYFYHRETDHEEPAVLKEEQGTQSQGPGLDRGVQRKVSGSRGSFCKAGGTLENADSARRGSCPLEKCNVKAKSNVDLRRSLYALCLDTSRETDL

Row | Structure (SMILES) | pIC50 (HERG) | inhibition at 10 µM (HERG) | pIC50 (Kv1.5) | inhibition at 1 µM (Kv1.5) | pIC50 (L-type calcium channels)
1 | COc1ccc(CCN2C(=O)C3(CCN(C(=O)OC(C)(C)C)CC3)NC2c2ccc(OC(F)F)cc2)cc1 (centres unmarked) [Compound 62, 2-(4-Difluoromethoxyphenyl)-3-[2-(4-methoxyphenyl)ethyl]-4-oxo-1,3,8-triaza-spiro[4.5]decane-8-carboxylic acid tert-butyl ester] | 5.34 | 62% | 6.59 | 93% | 5.11
2 | COc1ccc(CCN2C(=O)C3(CCN(C(=O)C4CCCC4)CC3)N(C)C2c2ccc(OC(F)F)cc2)cc1 (centres unmarked) [Compound 82, 8-(cyclopentylcarbonyl)-2-[4-(difluoromethoxy)phenyl]-3-[2-(4-methoxyphenyl)ethyl]-1-methyl-1,3,8-triazaspiro[4.5]decan-4-one] | – | 90% | – | 88% | 5.15
3 | COc1ccc(CCN2C(=O)C3(CCN(C(=O)NN)CC3)N(C)C2c2ccc(C3CC3)cc2)cc1 (centres unmarked) [Compound 80, 2-(4-cyclopropylphenyl)-3-[2-(4-methoxyphenyl)ethyl]-1-methyl-4-oxo-1,3,8-triazaspiro[4.5]decane-8-carbohydrazide] | – | 24% | – | 74% | 4.72
4 | COc1ccc(CCN2C(=O)C3(CCN(C(=O)C4CC4)CC3)N(C)C2c2ccc(C3CC3)cc2)cc1 (centres unmarked) [Compound 4, 8-Cyclopropylcarbonyl-2-(4-cyclopropylphenyl)-3-[2-(4-methoxyphenyl)ethyl]-1-methyl-1,3,8-triaza-spiro[4.5]decan-4-one] | 5.02 | 64% | 6.82 | 94% | 5.10
5 | COc1ccc(CCN2C(=O)C3(CCN(C(C)=O)CC3)N(C)C2c2ccc(C3CC3)cc2)cc1 (centres unmarked) [Compound 5, 8-Acetyl-2-(4-cyclopropylphenyl)-3-[2-(4-methoxyphenyl)ethyl]-1-methyl-1,3,8-triaza-spiro[4.5]decan-4-one] | 4.51 | 8% | 6.29 | 84% | 4.44
6 | COc1ccc(CCN2C(=O)C3(CCN(C(N)=NC#N)CC3)N(C)C2c2ccc(OC)cc2)cc1 (centres unmarked) [Compound 30, N′-cyano-2-(4-methoxyphenyl)-3-[2-(4-methoxyphenyl)ethyl]-1-methyl-4-oxo-1,3,8-triazaspiro[4.5]decane-8-carboximidamide] | 5.22 | 91% | 6.78 | 93% | 4.68
7 | COc1ccc(CCN2C(=O)C3(CCN(C(=O)OC(C)(C)C)CC3)N(C)C2c2ccc(CC(C)C)cc2)cc1 (centres unmarked) [Compound 85, tert-butyl 2-(4-isobutylphenyl)-3-[2-(4-methoxyphenyl)ethyl]-1-methyl-4-oxo-1,3,8-triazaspiro[4.5]decane-8-carboxylate] | – | 3% | – | 85% | 5.17
8 | COc1ccc(CCN2C(=O)C3(CCN(C(=O)N4CCN(C)CC4)CC3)N(C)C2c2ccc(C3CC3)cc2)cc1 (centres unmarked) [Compound 22, 2-(4-Cyclopropylphenyl)-3-[2-(4-methoxyphenyl)ethyl]-1-methyl-8-[(4-methylpiperazin-1-yl)carbonyl]-1,3,8-triaza-spiro[4.5]decan-4-one] | – | 58% | – | 51% | 4.74
9 | CONC(=O)N1CCC2(CC1)C(=O)N(CCc1ccc(OC)cc1)C(c1ccc(C3CC3)cc1)N2C (centres unmarked) [Compound 25, 2-(4-cyclopropylphenyl)-N-methoxy-3-[2-(4-methoxyphenyl)ethyl]-1-methyl-4-oxo-1,3,8-triazaspiro[4.5]decane-8-carboxamide] | – | 23% | – | 82% | 4.77
10 | COc1ccc(CCN2C(=O)C3(CCN(S(C)(=O)=O)CC3)N(C)C2c2ccc(C(F)(F)F)cc2)cc1 (centres unmarked) [Compound 34, 2-(4-Trifluoromethylphenyl)-8-methanesulfonyl-3-[2-(4-methoxyphenyl)ethyl]-1-methyl-1,3,8-triaza-spiro[4.5]decan-4-one] | – | 50% | – | 80% | 4.74
11 | COc1ccc(CCN2C(=O)C3(CCN(S(C)(=O)=O)CC3)N(C)C2c2ccc(C3CC3)cc2)cc1 (centres unmarked) [Compound 32, 2-(4-cyclopropylphenyl)-8-methanesulfonyl-3-[2-(4-methoxy-phenyl)ethyl]-1-methyl-1,3,8-triaza-spiro[4.5]decan-4-one] | – | 57% | – | 90% | 4.89
12 | COc1ccc(CCN2C(=O)C3(CCN(CC(=O)N(C)C)CC3)N(C)C2c2ccc(C3CC3)cc2)cc1 (centres unmarked) [Compound 89, 2-{2-(4-cyclopropylphenyl)-3-[2-(4-methoxyphenyl)ethyl]-1-methyl-4-oxo-1,3,8-triazaspiro[4.5]dec-8-yl}-N,N-dimethylacetamide] | 4.92 | 43% | 6.56 | 94% | 4.92
13 | CN1C(c2ccc(C3CC3)cc2)N(CCCc2ccccc2)C(=O)C12CCN(S(C)(=O)=O)CC2 (centres unmarked) [Compound 54, 2-(4-Cyclopropylphenyl)-8-methanesulfonyl-1-methyl-3-(3-phenylpropyl)-1,3,8-triazaspiro-[4.5]decan-4-one] | 5.31 | 53% | 6.58 | 88% | 4.74
14 | CN(C)C(=O)N1CCC2(CC1)C(=O)N(CCCc1ccccc1)C(c1ccc(C3CC3)cc1)N2C (centres unmarked) [Compound 53, 2-(4-Cyclopropylphenyl)-1-methyl-4-oxo-3-(3-phenylpropyl)-1,3,8-triazaspiro-[4.5]decane-8-carboxylic acid dimethylamide] | – | 77% | – | 93% | 5.35
15 | COc1ccc(CCN2C(=O)C3(CCN(C(=O)c4ccno4)CC3)N(C)C2c2ccc(C3CC3)cc2)cc1 (centres unmarked) [Compound 42, 2-(4-Cyclopropylphenyl)-8-(isoxazol-5-yl-carbonyl)-3-[2-(4-methoxyphenyl)ethyl]-1-methyl-1,3,8-triazaspiro[4.5]decan-4-one] | – | 81% | – | 94% | 4.64
16 | COc1ccc(CCN2C(=O)C3(CCN(C(=O)N4CCCC4)CC3)N(C)C2c2ccc(C3CC3)cc2)cc1 (centres unmarked) [Compound 23, 2-(4-Cyclopropylphenyl)-3-[2-(4-methoxyphenyl)ethyl]-1-methyl-8-(pyrrolidin-1-ylcarbonyl)-1,3,8-triaza-spiro[4.5]decan-4-one] | 5.21 | 77% | 6.74 | 96% | 5.18
17 | COc1ccc(CCN2C(=O)C3(CCN(S(C)(=O)=O)CC3)N(C)C2c2ccc(C(C)(C)C)cc2)cc1 (centres unmarked) [Compound 33, 2-(4-tert-Butylphenyl)-8-methanesulfonyl-3-[2-(4-methoxyphenyl)ethyl]-1-methyl-1,3,8-triaza-spiro[4.5]decan-4-one] | – | 54% | – | 80% | 4.60
18 | CCOC(=O)N1CCC2(CC1)C(=O)N(CCc1ccc(OC)cc1)C(c1ccc(C3CC3)cc1)N2C (centres unmarked) [Compound 35, Ethyl 2-(4-cyclopropylphenyl)-3-[2-(4-methoxyphenyl)ethyl]-1-methyl-4-oxo-1,3,8-triazaspiro[4.5]decane-8-carboxylate] | – | 65% | – | 96% | 4.52
